Laboratory results from patent US20250332173A1, “COMPOUNDS AND METHODS FOR MODULATING NUCLEIC ACID SPLICING” (REMIX THERAPEUTICS INC., priority 2021, published 2025).
Where two headings read alike, the source gives them in different places.

Assays:
[1] = system: K562 (human chronic myelogenous leukemia) cells; experiment: Cell Titer Glo 2.0 cell viability assay; type: cell-based; conditions: Homo sapiens, K562, 72 h, K562 cells, 72 hours, Cell Titer Glo 2.0; read-out: K562 GI50
[2] = system: SMN2 mRNA; experiment: RT-qPCR splicing assay, SMN2 canonical junction (CJ) mRNA; type: cell-based, human; conditions: Homo sapiens; Table 5 panel; canonical junction qPCR; compound concentration having 50% response in CJ decrease; read-out: SMN2 IC50 (decrease in CJ mRNA levels)
Method in brief: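 A673 or K562 cells were treated for 24 h at 37 °C with compound in 11-point 3-fold dilution (top 10 uM final, DMSO ≤0.25%). Lysates then went to one-step RT-qPCR measuring canonical-junction mRNA, normalized to GAPDH, GUSB or PPIA.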

[3] = system: MYB mRNA; experiment: RT-qPCR splicing assay, MYB canonical junction (CJ) and alternative junction (AJ) mRNA; type: cell-based, human; conditions: Homo sapiens; for AC50: increase in MYB alternative junction (AJ) mRNA, read-out: MYB AJ AC50
Method in brief: (§1)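 Read-out is one-step RT-qPCR on cell lysates detecting the exon-exon junction of each isoform, normalized to a housekeeping gene (PPIA in A673, GAPDH or GUSB in K562).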

[4] = system: HTT mRNA; experiment: RT-qPCR splicing assay, HTT canonical junction (CJ) and alternative junction (AJ) mRNA; type: cell-based, human; conditions: Homo sapiens; for AC50: increase in HTT alternative junction (AJ) mRNA, read-out: HTT AJ AC50
Method in brief: as §1

[5] = Table 5 panel, canonical junction qPCR, compound concentration having 50% response in CJ decrease, read-out: MYB IC50 (decrease in CJ mRNA levels)
[6] = decrease in MYB canonical junction (CJ) mRNA, RT-qPCR, read-out: MYB CJ IC50
[7] = decrease in HTT canonical junction (CJ) mRNA, RT-qPCR, read-out: HTT CJ IC50
[8] = Table 5 panel, canonical junction qPCR, compound concentration having 50% response in CJ decrease, read-out: HTT IC50 (decrease in CJ mRNA levels)

Row | Compound | GI50 [1] | IC50 [2] | IC50 [3, 5] | IC50 [3, 6] | IC50 [4, 7] | IC50 [4, 8] | AC50 ([3]; RT-qPCR) | AC50 ([4]; RT-qPCR)
1 | Cc1cn2nc(-c3cc(N(C)C)c4c(=O)n(C5CCNC6(CC6)C5)cnc4c3)cc(C)c2n1 (stereo not shown) [Compound 345] | > 10000 nM | < 100 nM | < 100 nM | < 100 nM | < 100 nM | < 100 nM | < 100 nM | < 100 nM
2 | Cc1cn2nc(-c3ccc4c(=O)n(C5CCN(C)CC5)ccc4c3)cc(C)c2n1 [Compound 310] | 1000 to 10000 nM | < 100 nM | < 100 nM | < 100 nM | 100 to 1000 nM | 100 to 1000 nM | < 100 nM | 100 to 1000 nM
3 | CCN1CCC(n2ncc3cc(-c4cc(C)c5nc(C)cn5n4)ccc3c2=O)CC1 [Compound 266] | 100 to 1000 nM | < 100 nM | 100 to 1000 nM | < 100 nM | < 100 nM | < 100 nM | 100 to 1000 nM | < 100 nM
4 | Cc1cn2cc(-c3ccc4c(=O)n(C5CCN[C@@H](C)C5)cnc4c3)cc(F)c2n1 (stereo partly shown) [Compound 294] | 100 to 1000 nM | < 100 nM | 100 to 1000 nM | 100 to 1000 nM | 1000 to 10000 nM | 1000 to 10000 nM | 100 to 1000 nM | 1000 to 10000 nM
5 | Cc1cn2nc(-c3ccc4c(=O)n(C5CCN(C)CC5)cnc4c3)nc2c(C)n1 [Compound 288, 7-{6,8-dimethyl-[1,2,4]triazolo[1,5-a]pyrazin-2-yl}1-3-(1-methylpiperidin-4-yl)quinazolin-4-one] | 1000 to 10000 nM | 1000 to 10000 nM | 1000 to 10000 nM | 1000 to 10000 nM | 1000 to 10000 nM | 1000 to 10000 nM | 1000 to 10000 nM | 1000 to 10000 nM
6 | Cc1cn2cc(-c3ccc4c(=O)n([C@@H]5CCN[C@@H](C)C5)cnc4c3)cc(F)c2n1 [Compound 293] | 100 to 1000 nM | < 100 nM | 100 to 1000 nM | 100 to 1000 nM | 1000 to 10000 nM | 100 to 1000 nM | 100 to 1000 nM | 100 to 1000 nM
7 | Cc1cn2nc(-c3ccc4c(=O)n([C@@H]5C[C@H]6CC[C@@H](C5)N6)ncc4c3)cc(C)c2n1 [Compound 280] | 1000 to 10000 nM | < 100 nM | 100 to 1000 nM | 100 to 1000 nM | 100 to 1000 nM | 100 to 1000 nM | 100 to 1000 nM | 100 to 1000 nM
8 | Cc1cn2nc(-c3ccc4c(=O)n([C@H]5CCNC6(CC6)C5)cnc4c3)cc(C)c2n1 [Compound 349, 3-[(7S)-4-azaspiro[2.5]octan-7-yl]-7-{2,8-dimethylimidazo[1,2-b]pyridazin-6-yl}quinazolin-4-one] | 1000 to 10000 nM | < 100 nM | 100 to 1000 nM | 100 to 1000 nM | 100 to 1000 nM | 100 to 1000 nM | 100 to 1000 nM | 100 to 1000 nM
9 | Cc1cn2nc(-c3cc(F)c4c(=O)n(C5CCNCC5)ccc4c3)cc(C)c2n1 [Compound 322] | < 100 nM | < 100 nM | < 100 nM | < 100 nM | < 100 nM | < 100 nM | < 100 nM | < 100 nM
10 | CN1CC=C(c2ccc3c(=O)n(-c4ccc5nn(C)cc5c4)cnc3c2)CC1 [Compound 159] | – | > 10000 nM | > 10000 nM | > 10000 nM | > 10000 nM | > 10000 nM | > 10000 nM | > 10000 nM
11 | Cn1cc2cc(-n3cnc4cc(C5=CCNCC5)ccc4c3=O)ccc2n1 [Compound 158] | – | > 10000 nM | > 10000 nM | > 10000 nM | > 10000 nM | > 10000 nM | > 10000 nM | > 10000 nM
12 | Cc1cc(-c2ccc3c(=O)n(C4CC(C)(C)NC(C)(C)C4)cnc3c2)cc2cn(C)nc12 [Compound 157] | – | 1000 to 10000 nM | 1000 to 10000 nM | 1000 to 10000 nM | > 10000 nM | > 10000 nM | 1000 to 10000 nM | > 10000 nM

Now from value to compound, other results behind:

Row | GI50 [1] | IC50 [2] | IC50 [3, 5] | IC50 [3, 6] | IC50 [4, 7] | IC50 [4, 8] | Compound | AC50 ([3]; RT-qPCR) | AC50 ([4]; RT-qPCR)
13 | 1000 to 10000 nM | 100 to 1000 nM | 1000 to 10000 nM | 1000 to 10000 nM | > 10000 nM | 1000 to 10000 nM | CNc1cc(-c2cc(F)c3nc(C)cn3c2)cc2ncn(C3CCNCC3)c(=O)c12 [Compound 358, 7-{8-fluoro-2-methylimidazo[1,2-a]pyridine-6-yl}-5-(methylamino)-3-(piperidin-4-yl)quinazolin-4-one] | 1000 to 10000 nM | 1000 to 10000 nM
14 | 1000 to 10000 nM | 100 to 1000 nM | 1000 to 10000 nM | 1000 to 10000 nM | 1000 to 10000 nM | 1000 to 10000 nM | Cc1cc(-c2cnc3c(=O)n(C4CCNCC4)cnc3c2)cc2cn(C)nc12 [Compound 311] | 1000 to 10000 nM | 1000 to 10000 nM
15 | 100 to 1000 nM | < 100 nM | 100 to 1000 nM | 100 to 1000 nM | 100 to 1000 nM | 100 to 1000 nM | Cc1cn2nc(-c3ccc4c(=O)n(C5CCNCC5)cnc4c3)nc2c(C)n1 [Compound 287, 7-{6,8-dimethyl-[1,2,4]triazolo[1,5-a]pyrazin-2-yl}-3-(piperidin-4-yl)quinazolin-4-one] | 100 to 1000 nM | 100 to 1000 nM
16 | < 100 nM | < 100 nM | < 100 nM | < 100 nM | 100 to 1000 nM | < 100 nM | Cc1cn2cc(-c3cc(F)c4c(=O)n(C5=CCNCC5)cnc4c3)cc(F)c2n1 [Compound 342] | < 100 nM | < 100 nM
17 | 100 to 1000 nM | < 100 nM | < 100 nM | < 100 nM | 100 to 1000 nM | 100 to 1000 nM | Cc1cn2cc(-c3cc(F)c4c(=O)n(N5CCNCC5)cnc4c3)cc(F)c2n1 [Compound 340, 5-fluoro-7-{8-fluoro-2-methylimidazo[1,2-a]pyridin-6-yl}-3-(piperazin-1-yl)quinazolin-4-one] | < 100 nM | 100 to 1000 nM
18 | 1000 to 10000 nM | 1000 to 10000 nM | > 10000 nM | > 10000 nM | > 10000 nM | > 10000 nM | CNc1cc(-c2cc(C#N)c3nc(C)cn3c2)cc2ncn(C3CCNCC3)c(=O)c12 [Compound 363, 2-methyl-6-[5-(methylamino)-4-oxo-3-(piperidin-4-yl)quinazolin-7-yl]imidazo[1,2-a]pyridine-8-carbonitrile] | > 10000 nM | > 10000 nM
19 | > 10000 nM | 100 to 1000 nM | 1000 to 10000 nM | 1000 to 10000 nM | > 10000 nM | 1000 to 10000 nM | Cc1cn2cc(-c3cc(F)c4c(=O)n(C5CCNCC5(F)F)cnc4c3)cc(F)c2n1 (stereo not shown) [Compound 339] | 1000 to 10000 nM | 1000 to 10000 nM
20 | < 100 nM | < 100 nM | < 100 nM | < 100 nM | < 100 nM | < 100 nM | Cc1cn2nc(-c3cc(F)c4c(=O)n([C@H]5CCNC6(CC6)C5)cnc4c3)cc(C)c2n1 (single isomer, unassigned) [Compound 357] | < 100 nM | < 100 nM
21 | 100 to 1000 nM | < 100 nM | 100 to 1000 nM | 100 to 1000 nM | 100 to 1000 nM | 100 to 1000 nM | Cc1cn2cc(-c3ccc4c(=O)n(C5CCNCC5)cnc4c3)cc(C)c2n1 [Compound 292] | 100 to 1000 nM | 100 to 1000 nM
22 | 100 to 1000 nM | < 100 nM | 100 to 1000 nM | < 100 nM | 100 to 1000 nM | 100 to 1000 nM | Cc1cn2cc(-c3cc(F)c4c(=O)n([C@H]5CCNC[C@@H]5F)cnc4c3)cc(F)c2n1 (relative stereo) [Compound 341, 5-fluoro-7-(8-fluoro-2-methylimidazo[1,2-a]pyridin-6-yl)-3-(trans-3-fluoropiperidin-4-yl)quinazolin-4(3H)-one] | 100 to 1000 nM | 100 to 1000 nM
23 | 1000 to 10000 nM | > 10000 nM | > 10000 nM | > 10000 nM | > 10000 nM | > 10000 nM | CN1CCN(c2ccc3c(=O)n(-c4ccc5nn(C)cc5c4)cnc3c2)CC1 [Compound 152] | 1000 to 10000 nM | > 10000 nM
24 | – | 100 to 1000 nM | 1000 to 10000 nM | 1000 to 10000 nM | 1000 to 10000 nM | 1000 to 10000 nM | Cc1cc(-c2ccc3c(=O)n(C4CCN(C)CC4)cnc3c2)cc2cn(C)nc12 [Compound 156] | 1000 to 10000 nM | 1000 to 10000 nM
25 | – | 100 to 1000 nM | 100 to 1000 nM | 100 to 1000 nM | 100 to 1000 nM | 100 to 1000 nM | Cc1cn2nc(-c3ccc4c(=O)n(C5CCN(C)CC5)cnc4c3F)cc(C)c2n1 [Compound 290] | 100 to 1000 nM | 100 to 1000 nM
26 | – | 1000 to 10000 nM | 1000 to 10000 nM | > 10000 nM | > 10000 nM | > 10000 nM | Cn1cc2cc(-n3cnc4cc(N5CCNCC5)ccc4c3=O)ccc2n1 [Compound 153] | > 10000 nM | > 10000 nM
